# Results: patent US9463174B2, “Pharmaceutical composition for the treatment of type-1 diabetes” (priority 2008, dated 2016)
# Experiments:
# [1] = test system: T1D-prone NOD mice; conditions: monotherapy, Hadjiyanni I et al 2008; cited from earlier work
# [2] = test system: INS-1 cells; assay: GABA production and release from insulin-secreting beta-cells (Free Amino Acid Analysis); format: cell-based
# Method: In these in vitro assays using GLP-1-secreting and/or insulin-secreting cells, it was shown that the production and secretion of GLP-1 in the gut-derived cells (STC-1) were modulated by GABA, and the production and release of GABA from the beta-cells were also modulated by GLP-1. The specificity of these assays was determined by including the GABAAR antagonists or GLP-1 receptor antagonist in the assays.
# The Free Amino Acid Analysis was performed on a Waters Acquity UPLC System. The Waters Acquity UPLC system employed consists of a Binary Solvent Manager, a Sample Manager, a TUV Detector and a Waters Acquity UPLC BEH C18 column (2.1×100 mm). Data was collected, stored and processed using Waters Empower 2 Chromatography software. Drying was done using a Tomy CC-181 Centrifugal Concentrator with a Sargent-Welch Model 8821 Vacuum pump. The operational procedures are as following: an aliquot of the sample was transferred into a 6×55 mm glass culture tube and dried under vacuum using a centrifugal evaporator. After drying, the sample was treated with a redrying solution consisting of methanol:water:triethylamine (2:2:1), vortex-mixed and dried under vacuum for 15 minutes. […] The derivatized amino acids were detected at 254 nm.
# GABA concentrations were determined by the Free Amino Acid Analysis. […]
substance,measurement,setting,value
"GLP-1: incretin hormone glucagon-like peptide-1, SEQ ID NO: 1",efficacy on diabetes onset in T1D-prone NOD mice,[1],only marginally effective
same,production and release of GABA from the beta-cells,[2],modulated
